pIC50: −log10 of the molar value.
What was measured:
[1] = Hepatocyte stability assay, human; type: in vitro ADME; conditions: human, cryopreserved hepatocytes, 10 μM compound, read-out: T½
Description: (§1) Defrosted cryo-preserved hepatocytes (viability >70%) were used to determine the metabolic stability of a compound via calculation of intrinsic clearance (Clint; a measure of the removal of a compound from the liver in the absence of blood flow and cell binding). Clearance data are particularly important for in vitro work as they can be used in combination with in vivo data to predict the half-life and oral bioavailability of a drug.
(§2) The metabolic stability in hepatocytes assay involves a time-dependent reaction using both positive and negative controls. The cells were pre-incubated at 37° C. and spiked with test compound (and positive control); samples were taken at pre-determined time intervals were analysed to monitor the change in concentration of the initial drug compound over 60 minutes. A buffer incubation reaction (with no hepatocytes present) acted as a negative control and two cocktail solutions, containing compounds with known high and low clearance values (verapamil/7-hydroxycoumarin and propranolol/diltiazem), acted as positive controls. • 1. The assay was run with a cell concentration of 0.5×10^6 cells/mL in Leibovitz buffer. • 2. All compounds and controls were run in duplicate. • 3. Compound concentration was 10 μM. • 4. All compounds and controls were incubated with both cells and buffer to show turnover was due to hepatic metabolism. • 5. All wells on the incubation plate had 326.7 μL of either cells or buffer added. • 6. Prior to assay, cell and buffer-only incubation plates were preincubated for 10 mins at 37° C. • 7. The assay was initiated by adding compounds, 3.3 μL of 1 mM in 10% DMSO-90% Buffer; final DMSO concentration was 0.1%. • 8. Samples were taken at regular timepoints (0, 5, 10, 20, 40, 60 min) until 60 mins. • 9. Sample volume was 40 μL and was added to 160 μL of crash solvent (acetonitrile with internal standard) and stored on ice. • 10. At the end of the assay, the crash plates were centrifuged at 3500 rpm for 20 mins at 4° C. • 11. 80 μL of clear supernatant was removed and mixed with 80 μL of deionised water before being analysed by LC-MS/MS.
(§3) Raw LC-MS/MS data was exported to, and analysed in, Microsoft Excel for determination of intrinsic clearance. The percentage remaining of a compound was monitored using the peak area of the initial concentration as 100%. Intrinsic clearance and half-life values were calculated using a graph of the natural log of percentage remaining versus the time of reaction in minutes. Half-life (min) and intrinsic clearance (Clint in μL min^−1 10^−6 cells) values were calculated using the gradient of the graph (the elimination rate constant, k) and Equations 1 and 2.

human hepatocytes = experiment: Hepatocyte stability assay, human; type: in vitro ADME; conditions: 10 μM compound
Description: as §1, §2, §3

mouse hepatocytes = experiment: Hepatocyte stability assay, mouse; type: in vitro ADME; conditions: 10 μM compound
Description: as §1, §2, §3

[2] = Hepatocyte stability assay, mouse; type: in vitro ADME; conditions: mouse, cryopreserved hepatocytes, 10 μM compound, read-out: T½
Description: as §1, §2, §3

[3] = system: IL-1β cytokine output from THP-1s; experiment: THP-1 AlphaLISA IL-1β cytokine assay; type: cell-based; conditions: Homo sapiens, THP-1, differentiated THP-1 cells, LPS then nigericin; Table 1
Procedure: (§4) The cytokine inhibition profiles of compounds of formula (I) were determined in a differentiated THP-1 cell assay. All assays were performed in RPMI-1640 growth medium (Gibco), supplemented with 10% fetal bovine serum (FBS; Gibco), 1% penicillin-streptomycin and 1% sodium pyruvate unless specified otherwise. The IL-1β and IL-6 cytokine inhibition assays were each run in a background of differentiated THP-1 cells as described below. All reagents described were from Sigma-Aldrich unless specified otherwise. Compounds were prepared as 10 mM DMSO stocks.
(§5) THP-1 cells were expanded as a suspension up to 80% confluence in appropriate growth medium. Cells were harvested, suspended, and treated with an appropriate concentration of phorbol 12-myristate 13-acetate (PMA) over a 72 hr period (37° C./5% CO2).
(§6) Following 72 hrs of THP-1 cell incubation, cellular medium was removed and replaced with fresh growth media containing 1% of FBS. Working concentrations of compounds were prepared separately in 10% FBS treated growth medium and pre-incubated with the cells for 30 minutes (37° C./5% CO2). Following the 30 minute compound pre-incubation, THP-1s were treated with an appropriate concentration of LPS and the THP-1s were subsequently incubated for a 24 hr period (37° C./5% CO2). An appropriate final concentration of Nigericin was then dispensed into the THP-1 plates and incubated for 1 hour (37° C./5% CO2) before THP-1 supernatants were harvested and collected in separate polypropylene 96-well holding plates.
(§7) Reagents from each of the IL-1β and IL-6 commercial kits (Perkin Elmer) were prepared and run according to the manufacturer's instructions. Subsequently, fluorescence signal detection in a microplate reader was measured (EnVision® Multilabel Reader, Perkin Elmer).
(§8) Percentage inhibition was calculated per cytokine by normalising the sample data to the high and low controls used within each plate (+/− LPS respectively). Percentage inhibition was then plotted against compound concentration and the 50% inhibitory concentration (IC50) was determined from the resultant concentration-response curve.

[4] = system: IL-6 cytokine output from THP-1s; experiment: THP-1 AlphaLISA IL-6 cytokine assay; type: cell-based; conditions: LPS then nigericin, Table 1
Procedure: as §4, §5, §6, §7, §8

[5] = system: NRF2 (nuclear factor erythroid 2-related factor 2); experiment: NRF2 +/-GSH activation assay (DiscoverX PathHunter NRF2 translocation kit, U2OS cells); type: cell-based; conditions: for Emax (%) +GSH / Emax (%) −GSH: normalised to dimethyl fumarate high control
[6] = Homo sapiens, THP-1, differentiated THP-1 cells

half-life at 10 μM [1] | Clint (μL min^−1 10^−6 cells) (human hepatocytes) | Clint (μL min^−1 10^−6 cells) (mouse hepatocytes) | half-life at 10 μM [2] | pIC50 [3] | pIC50 [4, 6] | T½ (mouse hepatocytes) | EC50 ([5]; +GSH) | EC50 ([5]; −GSH) | pIC50 ([4]; differentiated THP-1 cells) | Compound | Emax (%) +GSH ([5]; +GSH) | Emax (%) −GSH ([5]; −GSH)
9 min | 190 μL min^−1 10^−6 cells | >460 μL min^−1 10^−6 cells | < 3 min | 5.92 | 5.92 | – | – | – | – | C=C(CC(=O)OC1CCc2c(Cl)cc(Cl)cc21)C(=O)O[C@@H](CC(=O)O)C(F)(F)F (single isomer, unassigned; diastereomer b) [Example 23] | – | –
61 min | 29 μL min^−1 10^−6 cells | 272 μL min^−1 10^−6 cells | 6 min | 5.02 | 5.02 | – | 22.9 µM | 11.3 µM | – | C=C(CC(=O)OC1CCCc2cc(C(F)(F)F)ccc21)C(=O)OCC(=O)O (single isomer, unassigned; enantiomer 1) [Example 31, 2-((2-methylene-4-oxo-4-((6-(trifluoromethyl)-1,2,3,4-tetrahydronaphthalen-1-yl)oxy)butanoyl)oxy)acetic acid (Enantiomer 1)] | 137% | 141%
75 min | 19 μL min^−1 10^−6 cells | 224 μL min^−1 10^−6 cells | 7 min | 5.55 | – | – | 36.7 µM | 27.8 µM | – | C=C(CC(=O)OC1CCc2c(Cl)cc(Cl)cc21)C(=O)OCCC(=O)O (single isomer, unassigned; enantiomer 1) [Example 14, 3-((4-((4,6-dichloro-2,3-dihydro-1H-inden-1-yl)oxy)-2-methylene-4-oxobutanoyl)oxy)propanoic acid (Enantiomer 1)] | 118% | 193%
116 min | 13 μL min^−1 10^−6 cells | 51 μL min^−1 10^−6 cells | – | 5.40 | 5.37 | 37 min | 11.4 µM | 9 µM | – | C=C(CC(=O)OC1CCc2c(Cl)cc(Cl)cc21)C(=O)OCC(=O)O (single isomer, unassigned; enantiomer 1) [Example 2, 2-((4-((4,6-dichloro-2,3-dihydro-1H-inden-1-yl)oxy)-2-methylene-4-oxobutanoyl)oxy)acetic acid (Enantiomer 1)] | 166% | 196%
227 min | 6 μL min^−1 10^−6 cells | 72 μL min^−1 10^−6 cells | 21 min | 5.55 | – | – | 35.4 µM | 29.2 µM | – | C=C(CC(=O)OC1CCc2cc(C(F)(F)F)ccc21)C(=O)OCC(=O)O (centres unmarked) [Example 17, 2-((2-methylene-4-oxo-4-((5-(trifluoromethyl)-2,3-dihydro-1H-inden-1-yl)oxy)butanoyl)oxy)acetic acid] | 184% | 305%
7 min | 252 μL min^−1 10^−6 cells | >460 μL min^−1 10^−6 cells | < 3 min | 5.77 | 5.92 | – | – | – | – | C=C(CC(=O)OC1CCc2c(Cl)cc(Cl)cc21)C(=O)O[C@H](CC(=O)O)C(F)(F)F (single isomer, unassigned; diastereomer a) [Example 22] | – | –

The next lines start with the compound.

Compound | half-life at 10 μM [1] | Clint (μL min^−1 10^−6 cells) (human hepatocytes) | Clint (μL min^−1 10^−6 cells) (mouse hepatocytes) | half-life at 10 μM [2] | pIC50 [3] | pIC50 [4, 6] | T½ (mouse hepatocytes) | EC50 ([5]; +GSH) | EC50 ([5]; −GSH) | pIC50 ([4]; differentiated THP-1 cells) | Emax (%) +GSH ([5]; +GSH) | Emax (%) −GSH ([5]; −GSH)
C=C(CC(=O)OC1CCCc2c(Cl)cc(Cl)cc21)C(=O)OCC(=O)O (single isomer, unassigned; enantiomer 1) [Example 24, 2-((4-((5,7-dichloro-1,2,3,4-tetrahydronaphthalen-1-yl)oxy)-2-methylene-4-oxobutanoyl)oxy)acetic acid (Enantiomer 1)] | 32 min | 54 μL min^−1 10^−6 cells | 56 μL min^−1 10^−6 cells | – | 5.48 | 5.39 | 34 min | 5.7 µM | 6 µM | – | 84% | 148%
C=C(CC(=O)OC1CCc2ccc(OC(F)(F)F)cc21)C(=O)OCC(=O)O (centres unmarked) [Example 18, 2-((2-methylene-4-oxo-4-((6-(trifluoromethoxy)-2,3-dihydro-1H-inden-1-yl)oxy)butanoyl)oxy)acetic acid] | – | – | 146 μL min^−1 10^−6 cells | 10 min | 5.68 | – | – | 18.4 µM | 8.7 µM | – | 105% | 121%
C=C(CC(=O)OC1Cc2cc(Cl)c(Cl)cc2C1)C(=O)OCC(=O)O [Example 4, 2-((4-((5,6-dichloro-2,3-dihydro-1H-inden-2-yl)oxy)-2-methylene-4-oxobutanoyl)oxy)acetic acid] | 119 min | 13 μL min^−1 10^−6 cells | 83 μL min^−1 10^−6 cells | 16 min | 4.92 | 5.34 | – | 16.5 µM | 7.5 µM | – | 182% | 196%
C=C(CC(=O)OC1CCc2cc(Cl)cc(Cl)c2C1)C(=O)OCC(=O)O (single isomer, unassigned; enantiomer 1) [Example 10, 2-((4-((6,8-dichloro-1,2,3,4-tetrahydronaphthalen-2-yl)oxy)-2-methylene-4-oxobutanoyl)oxy)acetic acid (Enantiomer 1)] | 81 min | 18 μL min^−1 10^−6 cells | 225 μL min^−1 10^−6 cells | 7 min | 5.18 | – | – | – | – | – | – | –
C=C(CC(=O)OC1CCc2ccc(OC(F)(F)F)cc21)C(=O)OCC(=O)O (single isomer, unassigned; enantiomer 1) [Example 28, 2-((2-methylene-4-oxo-4-((6-(trifluoromethoxy)-2,3-dihydro-1H-inden-1-yl)oxy)butanoyl)oxy)acetic acid (Enantiomer 1)] | 75 min | 21 μL min^−1 10^−6 cells | 49 μL min^−1 10^−6 cells | – | 4.93 | – | 32 min | 22.5 µM | 8 µM | 5.12 | 139% | 160%

From US12678419B2, “Compounds” (Sitryx Therapeutics Limited, priority 2020, dated 2026)
